Data on 25 compounds can be found in patent US12319672B2, “Alpha-D-galactopyranoside derivatives” (Idorsia Pharmaceuticals Ltd, priority 2019, dated 2025).

Structures are written as SMILES.

The target of one test is human Gal-3 (hGal-3) (Homo sapiens (Human), UniProt P17931). Briefly: Competitive binding assay: binding of biotinylated hGal-3 to microplate-adsorbed asialofetuin (ASF). To be noted: Activity on hGal-3; mean values of several measurements. The essentials: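 Compounds diluted in DMSO competed with biotinylated hGal-3 or hGal-1 (300-1000 ng/mL) for binding to plate-adsorbed asialofetuin for 3 h at 4° C. Bound galectin was detected with streptavidin-peroxidase (80 ng/mL, 1 h, 4° C) and ABTS substrate; IC50 reported as mean of several measurements.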
human Gal-3 (hGal-3), sequence (P17931 whole entry): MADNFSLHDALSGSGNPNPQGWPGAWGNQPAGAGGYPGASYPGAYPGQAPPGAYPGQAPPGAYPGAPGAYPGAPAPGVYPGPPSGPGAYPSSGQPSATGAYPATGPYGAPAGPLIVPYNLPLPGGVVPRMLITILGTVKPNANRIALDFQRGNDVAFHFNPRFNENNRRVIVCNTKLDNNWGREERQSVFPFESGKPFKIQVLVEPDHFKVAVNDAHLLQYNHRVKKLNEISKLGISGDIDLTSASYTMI

A further test concerns the target human Gal-1 (hGal-1). Nature of the test: Competitive binding assay: binding of biotinylated hGal-1 to microplate-adsorbed asialofetuin (ASF). To be noted: Activities on hGal-1; mean values of several measurements. The method in brief: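 Biotin-hGal-3/hGal-1 300-1000 ng/mL + cpd (DMSO dilutions) on ASF-coated plate, 3 h 4° C; wash; SA-HRP 80 ng/mL 1 h 4° C; wash; ABTS. IC50 = mean of several runs. hGal-1 preferably Cys→Ser (all six) mutant.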

human Gal-1 (hGal-1), sequence (P09382 2-135 limits assumed): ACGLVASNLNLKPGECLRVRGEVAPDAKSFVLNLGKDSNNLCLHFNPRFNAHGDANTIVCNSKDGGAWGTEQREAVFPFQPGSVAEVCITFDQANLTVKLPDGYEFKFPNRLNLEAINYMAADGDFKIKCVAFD

One may read the IC50 as the concentration needed to halve the response being measured. A high value points to lower potency. For `CCOC(=O)N1CCC(c2cn(C[C@H]3O[C@H](CO)[C@H](O)[C@H](n4cc(-c5cc(F)c(F)c(F)c5)nn4)[C@H]3OC)nn2)CC1` [Example 4.39, ethyl 4-(1-(((2R,3R,4S,5R,6R)-5-hydroxy-6-(hydroxymethyl)-3-methoxy-4-(4-(3,4,5-trifluorophenyl)-1H-1,2,3-triazol-1-yl)tetrahydro-2H-pyran-2-yl)methyl)-1H-1,2,3-triazol-4-yl)piperidine-1-carboxylate], the half-inhibitory concentration (IC50) was found to be 0.044 µM on human Gal-3 (hGal-3) and 0.52 µM on human Gal-1 (hGal-1).
Taken in the same sequence, the figures for `CO[C@@H]1[C@@H](n2cc(-c3ccc(C)c(F)c3F)nn2)[C@@H](O)[C@@H](CO)O[C@@H]1Cc1cc(C(C)(C)O)no1` [Example 2.62, (2R,3R,4S,5R,6R)-4-(4-(2,3-difluoro-4-methylphenyl)-1H-1,2,3-triazol-1-yl)-2-(hydroxymethyl)-6-((3-(2-hydroxypropan-2-yl)isoxazol-5-yl)methyl)-5-methoxytetrahydro-2H-pyran-3-ol] were 0.036 µM and 2.28 µM.
On the same counts, the results for `CO[C@@H]1[C@@H](n2cc(-c3cc(F)c(F)c(F)c3)nn2)[C@@H](O)[C@@H](CO)O[C@@H]1Cc1cn(C2CCS(=O)(=NC(C)C)CC2)nn1` (stereo partly drawn) [Example 4.31, 4-(4-(((2R,3R,4S,5R,6R)-5-hydroxy-6-(hydroxymethyl)-3-methoxy-4-(4-(3,4,5-trifluorophenyl)-1H-1,2,3-triazol-1-yl)tetrahydro-2H-pyran-2-yl)methyl)-1H-1,2,3-triazol-1-yl)-1-(isopropylimino)hexahydro-1l6-thiopyran 1-oxide] are 0.027 µM and 0.32 µM.
For `O=c1cc(C2=NO[C@H](C[C@H]3O[C@H](CO)[C@H](O)[C@H](n4cc(-c5cc(F)c(F)c(F)c5)nn4)[C@H]3O)C2)cc[nH]1` [Example 2.05, 4-((S)-5-(((2R,3R,4R,5R,6R)-3,5-dihydroxy-6-(hydroxymethyl)-4-(4-(3,4,5-trifluorophenyl)-1H-1,2,3-triazol-1-yl)tetrahydro-2H-pyran-2-yl)methyl)-4,5-dihydroisoxazol-3-yl)pyridin-2(1H)-one], the IC50 at human Gal-3 (hGal-3) came to 0.19 µM; at human Gal-1 (hGal-1), 0.39 µM.
On the same counts, the results for `CC(=O)N1CCC(C2=NOC(C[C@H]3O[C@H](CO)[C@H](O)[C@H](n4cc(-c5cc(F)c(F)c(F)c5)nn4)[C@H]3O)C2)CC1` (mixture of isomers) [Example 3.03, 1-(4-((RS)-5-(((2R,3R,4R,5R,6R)-3,5-dihydroxy-6-(hydroxymethyl)-4-(4-(3,4,5-trifluorophenyl)-1H-1,2,3-triazol-1-yl)tetrahydro-2H-pyran-2-yl)methyl)-4,5-dihydroisoxazol-3-yl)piperidin-1-yl)ethan-1-one] are 0.15 µM and 2.49 µM.
Taken in the same sequence, the figures for `Cc1ccc(-c2cn([C@H]3[C@@H](O)[C@@H](CO)O[C@H](Cc4cc(C(C)(C)C)on4)[C@@H]3O)nn2)c(F)c1F` [Ex 1.205] were 0.041 µM and 9.01 µM.
Taken in the same sequence, the figures for `CCC1(c2cc(C[C@H]3O[C@H](CO)[C@H](O)[C@H](n4cc(-c5cc(F)c(F)c(F)c5)nn4)[C@H]3OC)on2)COC1` [Ex 1.212] were 0.16 µM and 1.6 µM.
`CO[C@@H]1[C@@H](n2cc(-c3cc(F)c(F)c(F)c3)nn2)[C@@H](O)[C@@H](CO)O[C@@H]1Cc1cc(C2CCN(C(C)=O)CC2)on1` [Example 3.21, 1-(4-(3-(((2R,3R,4S,5R,6R)-5-hydroxy-6-(hydroxymethyl)-3-methoxy-4-(4-(3,4,5-trifluorophenyl)-1H-1,2,3-triazol-1-yl)tetrahydro-2H-pyran-2-yl)methyl)isoxazol-5-yl)piperidin-1-yl)ethan-1-one]: the half-maximal inhibitory concentration (IC50) at human Gal-3 (hGal-3) is 0.046 µM; on human Gal-1 (hGal-1), 0.59 µM.
On the same counts, the results for `CO[C@@H]1[C@@H](n2cc(-c3ccc(F)c(F)c3F)nn2)[C@@H](O)[C@@H](CO)O[C@@H]1Cc1cc(C2(C#N)CCCC2)no1` [Ex 1.291] are 0.14 µM and 0.94 µM.
On to `CO[C@@H]1[C@@H](n2cc(-c3cc(F)c(F)c(F)c3)nn2)[C@@H](O)[C@@H](CO)O[C@@H]1Cc1cc(C2(OC)CCCC2)no1` [Ex 1.209], for which the IC50 stood at 0.26 µM on human Gal-3 (hGal-3) and 3.66 µM at human Gal-1 (hGal-1).
Consider `CCC(C)C(=O)N1CCC(c2cc(C[C@H]3O[C@H](CO)[C@H](O)[C@H](n4cc(-c5cc(F)c(F)c(F)c5)nn4)[C@H]3OC)no2)CC1` (mixture of isomers) [Example 3.53, (RS)-1-(4-(3-(((2R,3R,4S,5R,6R)-5-hydroxy-6-(hydroxymethyl)-3-methoxy-4-(4-(3,4,5-trifluorophenyl)-1H-1,2,3-triazol-1-yl)tetrahydro-2H-pyran-2-yl)methyl)isoxazol-5-yl)piperidin-1-yl)-2-methylbutan-1-one], for which the IC50 on human Gal-3 (hGal-3) was found to be 0.19 µM; on human Gal-1 (hGal-1) it was 2.51 µM.
Taken in the same sequence, the figures for `CO[C@@H]1[C@@H](n2cc(-c3ccc(C#N)c(F)c3F)nn2)[C@@H](O)[C@@H](CO)O[C@@H]1Cc1cc(C(C)(C)C)no1` [Ex 1.338] were 0.15 µM and 1.98 µM.
On the same counts, the results for `CO[C@@H]1[C@@H](n2cc(-c3cc(F)c(F)c(F)c3)nn2)[C@@H](O)[C@@H](CO)O[C@@H]1Cn1cc(C2CCN(C(=O)NC(C)(C)C)CC2)nn1` [Example 4.27, N-(tert-butyl)-4-(1-(((2R,3R,4S,5R,6R)-5-hydroxy-6-(hydroxymethyl)-3-methoxy-4-(4-(3,4,5-trifluorophenyl)-1H-1,2,3-triazol-1-yl)tetrahydro-2H-pyran-2-yl)methyl)-1H-1,2,3-triazol-4-yl)piperidine-1-carboxamide] are 0.034 µM and 0.38 µM.
On the same counts, the results for `CCCO[C@@H]1[C@@H](n2cc(-c3cc(F)c(F)c(F)c3)nn2)[C@@H](O)[C@@H](CO)O[C@@H]1Cc1cc(C2CCN(C(=O)OC(C)(C)C)CC2)on1` [Example 2.19, tert-butyl 4-(3-(((2R,3R,4S,5R,6R)-5-hydroxy-6-(hydroxymethyl)-3-propoxy-4-(4-(3,4,5-trifluorophenyl)-1H-1,2,3-triazol-1-yl)tetrahydro-2H-pyran-2-yl)methyl)isoxazol-5-yl)piperidine-1-carboxylate] are 0.17 µM and 1.05 µM.
As to `CO[C@@H]1[C@@H](n2cc(-c3ccc(Cl)c(F)c3F)nn2)[C@@H](O)[C@@H](CO)O[C@@H]1Cc1cc(C(C)(C)O)no1` [Example 2.63, (2R,3R,4S,5R,6R)-4-(4-(4-chloro-2,3-difluorophenyl)-1H-1,2,3-triazol-1-yl)-2-(hydroxymethyl)-6-((3-(2-hydroxypropan-2-yl)isoxazol-5-yl)methyl)-5-methoxytetrahydro-2H-pyran-3-ol], the IC50 was found to be 0.074 µM at human Gal-3 (hGal-3) and 1.73 µM at human Gal-1 (hGal-1).
Taken in the same sequence, the figures for `OC[C@H]1O[C@H](Cc2cc(C3CCN(c4ncco4)CC3)on2)[C@H](O)[C@@H](n2cc(-c3cc(F)c(F)c(F)c3)nn2)[C@H]1O` [Ex 1.85] were 0.047 µM and 1.14 µM.
On the same counts, the results for `CO[C@@H]1[C@@H](n2cc(-c3cc(F)cc(F)c3)nn2)[C@@H](O)[C@@H](CO)O[C@@H]1Cc1cc(C2CCN(C(=O)OC(C)(C)C)CC2)on1` [Ex 1.122] are 0.14 µM and 0.72 µM.
Taken in the same sequence, the figures for `Cc1ccc(-c2cn([C@H]3[C@@H](O)[C@@H](CO)O[C@H](CC4CC(C5CCN(C(=O)OC(C)(C)C)CC5)=NO4)[C@@H]3O)nn2)c(F)c1F` (some centres unmarked) [Ex 1.97] were 0.031 µM and 3.25 µM.
As for `CO[C@@H]1[C@@H](n2cc(-c3ccc(F)c(F)c3F)nn2)[C@@H](O)[C@@H](CO)O[C@@H]1Cc1cc(C2(C)CCCC2)no1` [Ex 1.287], the results for the IC50 at human Gal-3 (hGal-3) and on human Gal-1 (hGal-1) were 0.069 µM and 0.59 µM, respectively.
`CO[C@@H]1[C@@H](n2cc(-c3cc(F)c(F)c(F)c3)nn2)[C@@H](O)[C@@H](CO)O[C@@H]1Cc1cc(C2CCCC2)on1` [Ex 1.71]: the IC50 at human Gal-3 (hGal-3) is 0.23 µM; on human Gal-1 (hGal-1), 5.26 µM.
Taken in the same sequence, the figures for `OC[C@H]1O[C@H](CC2CC(C3CCOCC3)=NO2)[C@H](O)[C@@H](n2cc(-c3cc(F)c(F)c(F)c3)nn2)[C@H]1O` (some centres unmarked) [Ex 1.22] were 0.43 µM and 4.48 µM.
Taken in the same sequence, the figures for `CO[C@@H]1[C@@H](n2cc(-c3cc(F)cc(F)c3)nn2)[C@@H](O)[C@@H](CO)O[C@@H]1Cc1cn(C2CCN(C(=O)OCc3ccccc3)CC2)nn1` [Example 4.37, benzyl 4-(4-(((2R,3R,4S,5R,6R)-4-(4-(3,5-difluorophenyl)-1H-1,2,3-triazol-1-yl)-5-hydroxy-6-(hydroxymethyl)-3-methoxytetrahydro-2H-pyran-2-yl)methyl)-1H-1,2,3-triazol-1-yl)piperidine-1-carboxylate] were 0.015 µM and 0.17 µM.
Taken in the same sequence, the figures for `CO[C@@H]1[C@@H](n2cc(-c3ccc(Cl)c(F)c3F)nn2)[C@@H](O)[C@@H](CO)O[C@@H]1Cc1cc(C2CCN(S(C)(=O)=O)CC2)on1` [Ex 1.154] were 0.033 µM and 0.36 µM.
For `CO[C@@H]1[C@@H](n2cc(-c3ccc(F)c(F)c3F)nn2)[C@@H](O)[C@@H](CO)O[C@@H]1Cc1cc(C2CCOCC2)on1` [Ex 1.184], the results for the half-inhibitory concentration (IC50) on human Gal-3 (hGal-3) and on human Gal-1 (hGal-1) were 0.13 µM and 1.18 µM, respectively.
Taken in the same sequence, the figures for `CC(=O)N1CCC(C2CC(C[C@H]3O[C@H](CO)[C@H](O)[C@H](n4cc(-c5cc(F)c(F)c(F)c5)nn4)[C@H]3O)=NO2)CC1` (mixture of isomers) [Example 3.18, 1-(4-((RS)-3-(((2R,3R,4R,5R,6R)-3,5-dihydroxy-6-(hydroxymethyl)-4-(4-(3,4,5-trifluorophenyl)-1H-1,2,3-triazol-1-yl)tetrahydro-2H-pyran-2-yl)methyl)-4,5-dihydroisoxazol-5-yl)piperidin-1-yl)ethan-1-one] were 0.18 µM and 2.22 µM.
